Assay results as given in patent US20240158447A1, “PEPTIDES FOR USE IN THE TREATMENT OR PREVENTION OF MYOCARDIAL DAMAGE” (THE UNIVERSITY OF WESTERN AUSTRALIA, priority 2020, published 2024).

Key:
[1] = test system: cTnI-G203S mice; experiment: Echocardiography of pre-cardiomyopathic cTnI-G203S mice (Example 15); format: in vivo, mouse; conditions: 5 μM, 3×/wk/5 wk; versus AID(S)-TAT; FIG. 15
Source text: Twenty to thirty week-old male mice expressing the human cTnI gene encoding the human disease-causing cTnI-G203S were generated and used for the in vivo studies. By way of background, the mice develop hallmark features of HCM between 20 and 25 weeks (Viola H, Johnstone V, Cserne Szappanos H, Richman T, Tsoutsman T, Filipovska A, et al. The L-type Ca(2+) channel facilitates abnormal metabolic activity in the cTnI-G2035 mouse model of hypertrophic cardiomyopathy. J Physiol. 2016; 594(14):4051-70; Viola H M, Shah A A, Johnstone V P A, Cserne Szappanos H, Hodson M P, Hool L C. Characterization and validation of a preventative therapy for hypertrophic cardiomyopathy in a murine model of the disease. Proc Nati Aced Sci U S A. 2020; 117(37):23113-24; Tsoutsman T, Chung J, Doolan A, Nguyen L, Williams IA, Tu E, et al. Molecular insights from a novel cardiac troponin I mouse model of familial hypertrophic cardiomyopathy. J Mol Cell Cardiol. 2006; 41(4):623-32). Age-matched male mice expressing the normal human troponin I gene were used as controls and indicated as wild-type (wt). For in vivo studies, 20-week old cTnI-G203S mice were treated with 10 μM AID(S)-TAT (2 mg/kg) or 5 μM AID-TAT mutant peptides via intraperitoneal injection, 3 times per week for a total duration of 5 weeks. The peptide was dissolved in phosphate buffered saline solution (PBS), and the total amount of the 10 μM AID-TAT mutant peptides administered over 5 weeks was 0.9 mg. The total amount of the 5 μM AID-TAT mutant peptides administered over 5 weeks was 0.45 mg Male mice were utilized to eliminate potential differences in responses due to gender. The number of mice used is indicated by N.
Echocardiographic studies to measure left ventricular function were performed on mice under light methoxyflurane anaesthesia with the use of an i13L probe on a Vivid™ 7 IQ ultrasound system (GE Healthcare, Little Chalfont, UK) as previously described (Viola H, Johnstone V, Cserne Szappanos H, Richman T, Tsoutsman T, Filipovska A, et al. The L-type Ca(2+) channel facilitates abnormal metabolic activity in the cTnI-G2035 mouse model of hypertrophic cardiomyopathy. J Physiol. 2016; 594(14):4051-70; Viola H M, Shah A A, Johnstone V P A, Cserne Szappanos H, Hodson M P, Hool L C. Characterization and validation of a preventative therapy for hypertrophic cardiomyopathy in a murine model of the disease. Proc Natl Acad Sci U S A. 2020; 117(37):23113-24; Viola H M, Johnstone V P A, Cserne Szappanos H, Richman T R, Tsoutsman T, Filipovska A, et al. The Role of the L-Type Ca(2+) Channel in Altered Metabolic Activity in a Murine Model of Hypertrophic Cardiomyopathy. JACC Basic Transl Sci. 2016; 1(1-2):61-72). Each N represents the average of quantitative measurements from wt or cTnI-G203S mice for each treatment group.

[2] = test system: cTnI.2 wt myocytes; experiment: Flavoprotein oxidation response to BayK(−), wt myocytes (Example 10); format: cell-based, mouse; conditions: 0.5 μM peptide 20 min, 10 μM BayK(−), FIG. 10B
Description: In this experiment wt myocytes were pre-exposed to 0.1, 0.5 or 1 μM for 20 min and assessed changes in flavoprotein oxidation and ψm.
Measurement of mitochondrial flavoprotein oxidation: Flavoprotein autofluorescence was used to measure flavoprotein oxidation based on previously described methods (Yaniv Y, Juhaszova M, Lyashkov A E, Spurgeon H A, Sollott S J, Lakatta E G. Ca2+-regulated-cAMP/PKA signaling in cardiac pacemaker cells links ATP supply to demand. J Mol Cell Cardiol. 2011; 51(5):740-8). […] Fluorescent images were acquired at 1 min intervals with 200 ms exposure. Metamorph 6.3 (Version 7.10.3) was used to quantify the signal by manually tracing myocytes. An equivalent region not containing cells was used as background and was subtracted. Fluorescence values recorded over 5 min before and 5 min after addition of drugs were averaged and alterations in fluorescent ratios reported as the percentage increase from the basal average. FCCP (50 μM) and NaCN (40 mM) was added at the end of each experiment to achieve a respective maximal and minimal fluorescence value indicative of maximal and minimal flavoprotein oxidation.
The ICA-L agonist BayK(−) was used to activate the channel and assess mitochondrial function. […] FIG. 10 presents the mean+/−SEM of flavoprotein fluorescence from cTnI.2 wt and cTnI-G2035 mutant myocytes before and after exposure to 10 μM BayK(−) in the presence of 1 μM AID(S)-TAT, and increasing concentrations of variant peptides as indicated. N=no. of animals, n=no. of cardiomyocytes. P values shown compared with AID(S)-TAT as determined by the Kruskal-Wallis test.

[3] = target: T1, Cavβ2 subunit (Homo sapiens, UniProt Q08289); experiment: Competitive binding affinity assay, biotinylated AID affinity beads vs Cavβ2 subunit (Example 9); conditions: dose-response 0, 10 nM to 100 μM peptide; FIG. 9
T1 construct: incubated with 100 μg of Cavβ2 subunit from cardiac homogenate and cytoplasmic protein preparation; from tissue; host or cells: cardiac homogenate and cytoplasmic protein preparation
Description: In this experiment, a binding affinity assay was utilized to examine the binding efficacy of AID peptide variants presented in Table 8, compared to the original AID peptide.
Biotinylation of original AID (no TAT): For each reaction (a dose-response curve consisted of 6 reactions), 0.02 nM […] was incubated in biotinylation solution (0.1M MES buffer containing 1 nM amine-PEG11-biotin and 0.2 nM EDC) for 2 hrs at room temperature with agitation (400 rpm). Affinity beads (Dynabeads M-280 Streptavidin, ThermoFisher Scientific) were then incubated with biotinylated AID peptide for 30 min at room temperature with agitation (400 rpm). Afterwards, biotinylated AID-coated affinity beads were washed, initially in 0.1% BSA in PBS and then three times in PBS for 3 min.
Biochem J. 2000; 348 Pt 3:657-65; Haase H, Striessnig J, Holtzhauer M, Vetter R, Glossmann H. A rapid procedure for the purification of cardiac 1,4-dihydropyridine receptors from porcine heart. Eur J Pharmacol. 1991; 207(1):51-9).
Competitive binding of AID-affinity beads and Cavβ2 subunit: Cavβ2-AID mutant peptide dilutions were then incubated with biotinylated AID-coated affinity beads for 2 hrs at room temperature with gentle agitation (400 rpm). Samples were placed on a magnetic stand to allow affinity beads to migrate to the magnet. Supernatant was removed and treated with 1× sample buffer (62.5 mM Tris-HCl, pH 6.8, 2% SDS, 10% glycerol, 100 mM DTT, 0.002% Bromophenol Blue) for 5 min at 95° C. Resulting protein was analysed by immunoblot.

[4] = test system: myocytes isolated from cTnI-G203S mutant mouse hearts; experiment: Mitochondrial flavoprotein oxidation after BayK(−), myocytes from HCM hearts (Example 6); format: cell-based; conditions: FIG. 5
Description: FIG. 5 presents the effect of mutant peptides on flavoprotein oxidation, a measure of metabolic activity and oxygen consumption in myocytes isolated from cTnI-G203S mutant mouse hearts that are hypertrophic.
All in vitro studies were performed in freshly isolated myocytes at 37° C. […] Following a 20 min incubation with 0.5-1 μM AID(S)-TAT, AID-TAT, peptide 6 or peptide 7, fluorescent signal of individual myocytes was quantified using Metamorph 6.3 to measure signal intensity of manually traced cell regions. An equivalent region not containing cells was used for background and was subtracted.
Autofluorescence was used to measure flavoprotein oxidation in cardiac myocytes based on previously described methods (480 nm ex, 535 nm em). Fluorescent images were taken at 1 min intervals with 1 s exposure before and after exposure to L-type Ca2+ channel agonist BayK(−). Fluorescence was reported as a percentage from the baseline pre-treatment average.

[5] = target: T2, L-type Ca^2+ channel β2 subunit (Homo sapiens, UniProt Q08289); experiment: Binding competition assay of variant peptides for the β2 subunit (AID-coated beads, heart lysate, SDS-PAGE); conditions: competition with bead-bound AID peptide, whole heart lysate, immunoblot densitometry; FIG. 2
T2 construct: from tissue; host or cells: whole heart (cardiac) lysate
Description: The affinity of each of the variant peptides to the β2 subunit was investigated through binding competition assays.
PureProteome™ NHS FlexiBind Magnetic Beads (Cat. #LSKMAGN04, Merck) were used following manufacturer recommendations. Aminohexanoic acid linked AID peptide was bound to the NHS flexibind magnetic beads at a concentration of more than 2 mg/mL to obtain saturation of the beads with peptide. Beads were first primed with an equilibration buffer (1 mM HCL) to prepare them for binding. The Ahx-AID peptide was dissolved in wash/coupling buffer (PBS, pH 7.4) and added to the beads. The beads-AID peptide mixture was left to mix uniformly on a multiplate shaker at a speed of 300 rpm at room temperature for 2 hours. To reduce non-specific binding the beads were incubated in Quench Buffer (100 mM Tris-HCl, 150 mM NaCl, pH 8.0) at room temperature for 1 hour.
The AID-peptide bound beads were split into 5 aliquots for the 5 samples prepared in Table 5. The whole heart lysate added to each of the peptide-bound beads to allow competitive binding for 2 hours at room temperature.
Upon completion, the conjugate was washed in coupling buffer, to remove unbound fraction. SDS sample buffer was added to the beads, with the tubes then heated for 5 minutes at 95° C. The eluted sample stored at −20° C. to be run through sodium dodecyl sulfate-polyacrymalide gel electrophoresis (SDS-PAGE) to determine the binding affinity of each of the variants.
The use of streptavidin dynabeads and biotinylated peptide was developed to improve the binding affinity assays. The peptide was initially biotinylated using EZ-link amine-PEG11-biotin (Spacer arm: 53.2 Å, Thermofisher Scientific, Cat. #26136) which was dissolved in 0.1M MES buffer ((2-N-morpholino)-ethanesulfonic acid) at a concentration of 1 mM. Just prior to the reaction, 0.1M EDC (N-(3-Dimethylaminopropyl)-N′-ethylcarbodiimide hydrochloride) was dissolved in MES buffer. In order to achieve complete biotinylation of the AID peptide, a 50× molar excess of biotin to peptide was required, with the total volumes of each component required shown in Table 6.
Each 78 μL aliquot of the biotinylated peptide shown in […] was enough for 6 reactions, covering the range of concentrations in which the heart lysate was again prepared with varying concentrations of the variant AID peptides according to Table 7.
The 78 μL aliquot of biotinylated AID-peptide was mixed with streptavidin dynabeads (1 mg Dynabeads per every 200 pmol biotinylated peptide) for half an hour at room temperature. The heart lysate ([…]) was incubated with the variant peptides at room temperature for 2 hours. After removing all unbound peptide from the beads, they were mixed with the pre-bound heart lysate for 2 hours at room temperature. The unbound fraction was removed. […]

T2 sequence (Q08289 whole entry): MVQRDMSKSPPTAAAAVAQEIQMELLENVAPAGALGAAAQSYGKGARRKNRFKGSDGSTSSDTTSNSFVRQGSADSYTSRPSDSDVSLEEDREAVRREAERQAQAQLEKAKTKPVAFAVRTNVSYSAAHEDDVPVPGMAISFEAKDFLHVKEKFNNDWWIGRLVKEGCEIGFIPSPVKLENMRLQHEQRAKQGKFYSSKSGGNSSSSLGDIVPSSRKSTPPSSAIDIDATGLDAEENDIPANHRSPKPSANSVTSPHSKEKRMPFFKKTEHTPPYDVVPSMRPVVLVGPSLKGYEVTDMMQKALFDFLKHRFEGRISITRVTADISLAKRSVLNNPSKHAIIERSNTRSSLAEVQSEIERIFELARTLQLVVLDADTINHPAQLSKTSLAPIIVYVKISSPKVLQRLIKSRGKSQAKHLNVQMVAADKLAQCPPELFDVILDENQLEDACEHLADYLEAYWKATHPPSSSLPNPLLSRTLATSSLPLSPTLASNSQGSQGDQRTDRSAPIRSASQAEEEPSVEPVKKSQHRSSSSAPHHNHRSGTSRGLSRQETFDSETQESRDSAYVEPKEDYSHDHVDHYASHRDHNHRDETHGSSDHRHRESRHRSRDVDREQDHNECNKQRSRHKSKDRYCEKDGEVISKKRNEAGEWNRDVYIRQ
T1 sequence (Q08289 whole entry): as above

Question: How did the “IVSd, intraventricular septum in diastole” value [1] turn out when “AIDP16-TAT: QQREEDLKGYLDWITQAE with TAT sequence” was run?
Answer: restored IVSd and IVSs only

Question: And the “IVSs, intraventricular septum in systole” value [1]?
Answer: restored IVSd and IVSs only

Question: Which “BayK(−) induced increase in flavoprotein oxidation” value [2] does the source give for QQEEEDEKGYLDWITQAE (Variant P15) here?
Answer: effective

Question: What about the “K0.5 values compared to AID peptide” value [3] of the same substance?
Answer: decreased K0.5 values

Question: And the “flavoprotein oxidation in comparison with AID-TAT peptide” value [4]?
Answer: statistically significant reduction in flavoprotein oxidation in comparison with AID-TAT peptide

Question: And the “binding affinity (K0.5) for the target β2 subunit versus the original AID peptide” value [5]?
Answer: greater binding affinity (lower K0.5)

Question: What does the source list for “QQEEEDLKGYLDWITQAE (Varian P14) [Variant P14]”?
Answer: BayK(−) induced increase in flavoprotein oxidation [2]: effective; K0.5 values compared to AID peptide [3]: decreased K0.5 values; flavoprotein oxidation in comparison with AID-TAT peptide [4]: statistically significant reduction in flavoprotein oxidation in comparison with AID-TAT peptide; binding affinity (K0.5) for the target β2 subunit versus the original AID peptide [5]: greater binding affinity (lower K0.5)

Question: Which “K0.5 values compared to AID peptide” value [3] does the source give for QQREEDLKGYLDWITQAE (Variant P16) here?
Answer: decreased K0.5 values

Question: And the “binding affinity (K0.5) for the target β2 subunit versus the original AID peptide” value [5]?
Answer: greater binding affinity (lower K0.5)
